This assay has as its target Motilin receptor (Homo sapiens, UniProt O43193). Nature of the assay: SUPPLEMENTARY: Agonist activity at human recombinant motilin receptor expressed in CHO cells by calcium mobilization-based FLIPR assay. Same assay as CHEMBL942680. The class given is functional, cell-based. In general terms: Calcium flux is commonly read through the fluorescence of an indicator in the cells.

Each structure is given as a SMILES string.

71 molecules from ChEMBL document CHEMBL2364262, “Structure-activity relationship data for chemical series of agonists of the motilin receptor (Supplementary Bioactivity Data for publication CHEMBL1141008)” can be followed below.

Chain of Motilin receptor (O43193 whole entry): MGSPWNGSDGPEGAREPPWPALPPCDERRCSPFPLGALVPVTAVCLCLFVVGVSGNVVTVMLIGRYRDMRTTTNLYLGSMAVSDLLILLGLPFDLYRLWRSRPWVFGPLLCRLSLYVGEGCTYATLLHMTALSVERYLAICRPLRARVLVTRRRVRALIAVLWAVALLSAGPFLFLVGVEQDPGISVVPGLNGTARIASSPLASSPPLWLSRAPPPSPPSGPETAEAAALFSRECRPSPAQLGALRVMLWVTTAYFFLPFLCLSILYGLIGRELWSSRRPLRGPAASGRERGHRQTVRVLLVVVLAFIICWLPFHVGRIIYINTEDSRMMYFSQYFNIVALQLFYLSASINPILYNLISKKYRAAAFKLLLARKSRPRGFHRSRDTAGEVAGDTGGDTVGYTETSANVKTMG

A word on the EC50: it is the concentration needed to bring the measured effect to its halfway point. As for `C[C@@H]1CN(Cc2ccc(CC(=O)N3CCC(Oc4ccc(F)cc4)CC3)cc2)CCN1`, the EC50 was 12.6 nM.
`C[C@H]1CN(Cc2ccc(CC(=O)N3CCC(Nc4ccc(C#N)cc4)CC3)cc2)CCN1`: the EC50 is 31.6 nM.
The same measure for `C[C@H]1CN(Cc2ccc(CC(=O)N3CCC(Nc4ccc(F)c(F)c4)CC3)cc2)CCN1`: 7.94 nM.
The same measure for `C[C@H]1CN(Cc2ccc(CC(=O)N3CCC(Oc4ccc(F)cc4)CC3)cc2)CCN1`: 20 nM.
The same measure for `C[C@H]1CN(Cc2ccc(CC(=O)N3CCC(Oc4cccc(F)c4)CC3)cc2)CCN1`: 25.1 nM; for `C[C@H]1CN(Cc2ccc(CC(=O)N3CCC(Nc4ccc(C(F)(F)F)cc4)CC3)cc2)CCN1`: 10 nM; for `C[C@H]1CN(Cc2ccc(CC(=O)N3CCC(Nc4cccc(C(F)(F)F)c4)CC3)cc2)CCN1`: 6.31 nM.
As to `COc1cc(CC(=O)N2CCC(Nc3cccc(F)c3)CC2)ccc1CN1CCN[C@@H](C)C1`, the EC50 was 25.1 nM.
The same measure for `C[C@@H]1CN(Cc2ccc(CC(=O)N3CCC(Nc4ccc(F)c(F)c4)CC3)cc2)CCN1`: 12.6 nM; for `C[C@@H]1CN(Cc2ccc(CC(=O)N3CCC(Oc4cccc(F)c4)CC3)cc2)CCN1`: 15.8 nM.
As for `C[C@@H]1CN(Cc2ccc(CC(=O)N3CCC(Oc4ccc(C#N)cc4)CC3)cc2)CCN1`, the figure is 12.6 nM.
As for `C[C@@H]1CN(Cc2ccc(CC(=O)N3CCC(Nc4ccc(C#N)cc4)CC3)cc2)CCN1`, the figure is 15.8 nM; as for `C[C@@H]1CN(Cc2ccc(CC(=O)N3CCC(Nc4cccc(C#N)c4)CC3)cc2)CCN1`, 3.16 nM; as for `C[C@@H]1CN(Cc2ccc(CC(=O)N3CCC(Nc4cccc(C(F)(F)F)c4)CC3)cc2)CCN1`, 2.51 nM.
Turning to `C[C@H]1CN(Cc2ccc(N(C)C(=O)c3ccc(-c4ccc(F)cc4)nc3)cc2)CCN1`, the EC50 was 1.58 nM.
As for `C[C@H]1CN(Cc2ccc(N(C)C(=O)c3ccc(-c4ccc(F)cc4)cc3)cc2)CCN1`, the figure is 39.8 nM; as for `C[C@H]1CN(Cc2ccc(N(C)C(=O)C3CCN(Cc4cccc(F)c4)CC3)cc2)CCN1`, 5.01 nM.
As for `C[C@H]1CN(Cc2ccc(N(C)C(=O)c3ccc(-c4ccccc4F)nc3)cc2)CCN1`, the figure is 5.01 nM.
Take `C[C@H]1CN(Cc2ccc(N(C)C(=O)c3ccc(-c4cccc(F)c4)nc3)cc2)CCN1`: the EC50 was 1.26 nM.
Turning to `Cc1nc(-c2cccc(F)c2)ccc1C(=O)N(C)c1ccc(CN2CCN[C@@H](C)C2)cc1`, the EC50 is 0.631 nM.
As for `C[C@H]1CN(Cc2ccc(N(C)C(=O)c3ccc(Oc4cccc(F)c4)cc3)cc2)CCN1`, the figure is 2.51 nM; as for `Cc1nc(-c2cccc(C#N)c2)ccc1C(=O)N(C)c1ccc(CN2CCN[C@@H](C)C2)cc1`, 1.58 nM; as for `Cc1nc(-c2ccc(F)cc2)ccc1C(=O)N(C)c1ccc(CN2C[C@@H](C)N[C@@H](C)C2)cc1`, 0.398 nM.
The same measure for `C[C@@H]1CN(Cc2ccc(N(C)C(=O)c3ccc(-c4ccc(F)cc4)nc3)cc2)C[C@H](C)N1`: 2 nM.
As for `C[C@H]1CN(Cc2ccc(N(C)C(=O)c3ccc(Oc4ccccc4F)cc3)cc2)CCN1`, the figure is 5.01 nM; as for `Cc1nc(-c2ccc(F)cc2)ncc1C(=O)N(C)c1ccc(CN2CCN[C@@H](C)C2)cc1`, 1.58 nM; as for `C[C@H]1CN(Cc2ccc(N(C)C(=O)c3cnc(-c4ccc(F)cc4)nc3)cc2)CCN1`, 5.01 nM.
Consider `C[C@H]1CN(Cc2ccc(CC(=O)N3CCC(Nc4cccc(F)c4)CC3)cc2Cl)CCN1`, for which the EC50 is 5.01 nM.
As for `C[C@H]1CN(Cc2ccc(N(C)C(=O)c3ccc(Oc4ccccc4F)nc3)cc2)CCN1`, the figure is 7.94 nM; as for `Cc1cc(N(C)C(=O)c2ccc(-c3cccc(F)c3)nc2)ccc1CN1CCN[C@@H](C)C1`, 0.251 nM.
As to `C[C@H]1CN(Cc2ccc(NS(=O)(=O)c3ccc(N4CCCCC4)nc3)cc2)CCN1`, the half-maximal effective concentration (EC50) was 100 nM.
The same measure for `C[C@H]1CN(Cc2ccc(N(C)C(=O)c3ccc(-c4cccc(C#N)c4)nc3)cc2)CCN1`: 7.94 nM; for `C[C@H]1CN(Cc2ccc(N(C)C(=O)c3ccc(Oc4cccc(C#N)c4)nc3)cc2)CCN1`: 3.16 nM; for `C[C@H]1CN(Cc2ccc(N(C)C(=O)c3ccc(-c4cccc(F)c4)nc3)c(F)c2)CCN1`: 6.31 nM.
The same measure for `C[C@H]1CN(Cc2ccc(N(C)C(=O)c3ccc(Oc4cccc(F)c4)cn3)cc2)CCN1`: 1 nM.
The same measure for `C[C@H]1CN(Cc2ccc(N(C)C(=O)c3ccc(Oc4ccc(F)cc4)nc3)c(F)c2)CCN1`: 3.16 nM.
As to `C[C@H]1CN(Cc2ccc(N(C)C(=O)c3ccc(Oc4cccc(C#N)c4)cn3)cc2)CCN1`, the EC50 is 2 nM.
The same measure for `C[C@H]1CN(Cc2ccc(N(C)C(=O)C3CCN(Cc4ccc(F)cc4)CC3)cc2)CCN1`: 7.94 nM; for `C[C@H]1CN(Cc2ccc(N(C)C(=O)c3ccc(-c4cccc(F)c4)nc3)cc2F)CCN1`: 1.26 nM; for `CCN(C(=O)c1ccc(-c2cccc(F)c2)nc1)c1ccc(CN2CCN[C@@H](C)C2)cc1`: 0.794 nM.
The same measure for `C[C@H]1CN(Cc2ccc(N(C)C(=O)c3ccc(Oc4ccc(F)cc4)nc3)nc2)CCN1`: 31.6 nM; for `C[C@H]1CN(Cc2ccc(N(C)C(=O)C3CCN(Cc4cccc(C#N)c4)CC3)cc2)CCN1`: 39.8 nM; for `C[C@H]1CN(Cc2ccc(N(C)C(=O)C3CCN(Cc4ccc(C#N)cc4)CC3)cc2)CCN1`: 63.1 nM.
As for `C[C@H]1CN(Cc2ccc(N(C)C(=O)c3ccc(-c4cccc(F)c4)cn3)cc2)CCN1`, the figure is 7.94 nM; as for `C[C@H]1CN(Cc2ccc(N(C)C(=O)c3ccc(-c4ccc(F)cc4)cn3)cc2)CCN1`, 7.94 nM.
On to `CC(C)N(C(=O)c1ccc(-c2cccc(F)c2)nc1)c1ccc(CN2CCN[C@@H](C)C2)cc1`, for which the EC50 was 12.6 nM.
With `C[C@H]1CN(Cc2ccc(N(C)C(=O)c3ccc(-c4cccc(C#N)c4)cn3)cc2)CCN1`, the EC50 was 39.8 nM.
The same measure for `C[C@H]1CN(Cc2ccc(N(C)C(=O)c3ccc(C(=O)c4ccc(C(F)(F)F)cc4)cc3)cc2)CCN1`: 20 nM; for `COc1cccc(-c2ccc(C(=O)N(C)c3ccc(CN4CCN[C@@H](C)C4)cc3)nc2)c1`: 7.94 nM; for `Cc1cc(N(C)C(=O)c2ccc(Oc3ccc(F)cc3)nc2)ccc1CN1CCN[C@@H](C)C1`: 0.251 nM.
The same measure for `COCCN(C(=O)c1ccc(-c2cccc(F)c2)nc1)c1ccc(CN2CCN[C@@H](C)C2)cc1`: 15.8 nM; for `C[C@@H]1CN(Cc2ccc(NS(=O)(=O)c3ccc(-c4ccc(F)cc4)nc3)cc2)C[C@H](C)N1`: 158 nM; for `Cc1cc(NS(=O)(=O)c2ccc(-c3ccc(F)cc3)nc2)ccc1CN1CCN[C@@H](C)C1`: 1.58 nM.
The same measure for `COCCN(C(=O)c1ccc(Oc2ccc(F)cc2)nc1)c1ccc(CN2CCN[C@@H](C)C2)cc1`: 15.8 nM; for `C[C@H]1CN(Cc2ccc(N(C)C(=O)c3ccc(Oc4ccc(F)cc4)nc3)cc2Cl)CCN1`: 0.316 nM.
As for `CCN(C(=O)c1ccc(Oc2ccc(F)cc2)nc1)c1ccc(CN2CCN[C@@H](C)C2)cc1`, the EC50 was 0.398 nM.
The same measure for `C[C@H]1CN(Cc2ccc(N(C)C(=O)c3ccc(N4CCC(F)CC4)nc3)cc2)CCN1`: 79.4 nM; for `C[C@H]1CN(Cc2ccc(NS(=O)(=O)c3ccc(-c4ccc(F)cc4)nc3)cc2C(F)(F)F)CCN1`: 1.58 nM.
The same measure for `Cc1cc(N(C)C(=O)c2ccc(Oc3ccc(F)cc3)nc2)ncc1CN1CCN[C@@H](C)C1`: 2 nM; for `Cc1cc(NS(=O)(=O)c2cncc(-c3ccc(F)cc3)c2)ccc1CN1CCN[C@@H](C)C1`: 20 nM.
As for `C[C@@H]1CN(Cc2ccn(-c3cccnc3N3CCC(Nc4ccc(F)cc4)CC3)n2)C[C@H](C)N1`, the figure is 2 nM.
Take `C[C@@H]1CN(Cc2ccc(-c3cccnc3N3CCC(Nc4ccc(F)cc4)CC3)s2)C[C@H](C)N1`: the 50% effective concentration (EC50) is 25.1 nM.
As for `C[C@@H]1CN(Cc2ccc(-c3cccnc3S(=O)(=O)N3CCC(Nc4ccccc4F)CC3)cc2F)C[C@H](C)N1`, the figure is 20 nM; as for `C[C@H]1CN(Cc2ccc(-c3cccnc3C(=O)N3CCC(Nc4ccc(F)cc4)CC3)cc2)CCN1`, 1 nM; as for `C[C@@H]1CN(Cc2ccn(-c3cccnc3N3CCC(Oc4ccccc4F)CC3)n2)C[C@H](C)N1`, 6.31 nM.
As for `C[C@@H]1CN(Cc2ccn(-c3cccnc3N3CCC(Oc4cccc(F)c4)CC3)n2)C[C@H](C)N1`, the figure is 2.51 nM; as for `C[C@@H]1CN(Cc2ccn(-c3cccnc3N3CCC(Oc4ccc(F)cc4)CC3)n2)C[C@H](C)N1`, 1.26 nM; as for `C[C@H]1CN(Cc2ccn(-c3cccnc3N3CCC(Oc4cccc(F)c4)CC3)n2)CCN1`, 0.794 nM.
As for `C[C@@H]1CN(Cc2ccc(CCC(=O)N3CCC(Nc4cccc(F)c4)CC3)cc2)C[C@H](C)N1`, the figure is 39.8 nM; as for `CC(C(=O)N1CCC(Nc2cccc(F)c2)CC1)c1ccc(CN2C[C@@H](C)N[C@@H](C)C2)cc1` (stereo partly specified), 15.8 nM; as for `C[C@@H]1CN(Cc2ccc(C(C)(C)C(=O)N3CCC(Nc4cccc(F)c4)CC3)cc2)C[C@H](C)N1`, 25.1 nM.
